Test results from US7445892B2, “Method of testing anticancer agent-sensitivity of tumor cells” (Eisai Co., Ltd., priority 2000, dated 2008).

Key:
HCT116-C9-C1 = test: Gene expression analysis using GeneChip in E7070-resistant strain C9-C1; type: cell-based, human; conditions: resistant strain C9-C1, 8 μM, 12 hours
Procedure: E7070, or ER-35748 or ER-68487 represented by the structural formula shown below was added to the media of an E7070-susceptible strain HCT116-C9 and an E7070-resistant strain HCT116-C9-C1 at a concentration of 8 μM and the cells were cultured. Then, cells were recovered after 0, 3, 6 and 12 hours. Further, the cells were also cultured for 12 hours without adding the drug and recovered. Total RNA was extracted from these cells and subjected to the subsequent analyses. […] The stained GeneChip was scanned by using HP Argon Ion Laser Confocal Scanner (Hewlett Packard) to measure its fluorescence intensity. The fluorescence was measured at 570 nm by using an excitation light at 488 nm. The quantitative data analyses were all conducted by using GeneChip Software (Affymetrix). To quantify RNA, an average of “differences [(Perfect match hybridization signal)−(Mismatch signal)]” was obtained for each probe family. […] Two kinds of E7070-resistant strains (C9-C1 and another resistant strain (C9-C4) obtained in the same method as C9-C1) were treated with 8 μM of E7070 for 12 hours in the same manner as described above, and variations of the gene expression were analyzed by using GeneChip for the genes listed in Tables 1 and 2.

C9-C4 = test: Gene expression analysis using GeneChip in E7070-resistant strain C9-C4; type: cell-based, human; conditions: resistant strain C9-C4, 8 μM, 12 hours
Procedure: The fragmented cRNA was hybridized with GeneChip Hu6800 (Affymetrix) in 100 mM MES, 1 M sodium salt, 20 mM EDTA and 0.01% Tween 20 at 45° C. for 16 hours. After the hybridization, the GeneChip was washed and stained according to the protocol EukGE-WS2 attached to Affymetrix Fluidics Station. For the staining, streptavidin-phycoerythrin and biotinylated goat anti-streptavidin antibody were used. The stained GeneChip was scanned by using HP Argon Ion Laser Confocal Scanner (Hewlett Packard) to measure its fluorescence intensity. The fluorescence was measured at 570 nm by using an excitation light at 488 nm. The quantitative data analyses were all conducted by using GeneChip Software (Affymetrix). To quantify RNA, an average of “differences [(Perfect match hybridization signal)−(Mismatch signal)]” was obtained for each probe family. […] Two kinds of E7070-resistant strains (C9-C1 and another resistant strain (C9-C4) obtained in the same method as C9-C1) were treated with 8 μM of E7070 for 12 hours in the same manner as described above, and variations of the gene expression were analyzed by using GeneChip for the genes listed in Tables 1 and 2.

In the case of `NS(=O)(=O)c1ccc(S(=O)(=O)Nc2cccc3c(Cl)c[nH]c23)cc1` [E7070, N-(3-chloro-7-indolyl)-1,4-benzenedisulfonamide], the “variations of the gene expression for the genes listed in Tables 1 and 2” value (HCT116-C9-C1) is reported as “no gene that increased or decreased 1.8 times or more was observed” and the “variations of the gene expression for the genes listed in Tables 1 and 2” value (C9-C4) is reported as “no gene that increased or decreased 1.8 times or more was observed”.
